The results in this text go back to US20110124588A1, “SYNERGISTIC ACTIVE INGREDIENT COMBINATIONS” (Bayer Cropscience AG, priority 2008, published 2011).

Read-outs that look alike come from different tables or passages of the source.

One assay relates to Phaedon cochleariae. Description: Phaedon cochleariae larvae test (sprayed cabbage leaves). In kind it is in vivo, mustard beetle (Phaedon cochleariae) larvae. As to conditions: for pest or weed control at 100 g/ha / pest or weed control at 4 g/ha / pest or weed control at 20 g/ha / pest or weed control at 0.8 g/ha: Phaedon cochleariae. How it is done:
(§1) If the actual kill rate exceeds the calculated value, the kill of the combination is superadditive, i.e. a synergistic effect is present. In this case, the actually observed kill rate must exceed the value calculated using the above formula for the expected kill rate (E).
Solvents: 78 parts by weight of acetone • • 1.5 parts by weight of dimethylformamide Emulsifier: 0.5 part by weight of alkylaryl polyglycol ether
After the desired period of time, the kill in % is determined 100% means that all beetle larvae have been killed; 0% means that none of the beetle larvae have been killed. The kill rates determined are entered into Colby's formula.

The test system of the next assay is Tetranychus urticae. Put plainly: Tetranychus urticae test (OP-resistant/spray treatment). It counts as in vivo, greenhouse red spider mite (Tetranychus urticae). As to conditions: for pest or weed control at 0.8 g/ha / pest or weed control at 4 g/ha / pest or weed control at 20 g/ha / pest or weed control at 100 g/ha: Tetranychus urticae.
Description: (§2) The expected activity of a given combination of two active compounds can be calculated as follows, according to S. R. Colby, Weeds 15 (1967), 20-22:
(§3) X is the kill rate, expressed as a percentage of the untreated control, when employing active compound A at an application rate of m g/ha or in a concentration of m ppm, Y is the kill rate, expressed as a percentage of the untreated control, when employing active compound B at an application rate of n g/ha or in a concentration of n ppm and E is the kill rate, expressed as a percentage of the untreated control, when employing active compounds A and B at application rates of m and n g/ha or in a concentration of m and n ppm, then
as §1
(§4) solvents: 78 parts by weight of acetone • • 1.5 parts by weight of dimethylformamide emulsifier: 0.5 part by weight of alkylaryl polyglycol ether
(§5) To produce a suitable preparation of active compound, 1 part by weight of active compound is mixed with the stated amounts of solvents and emulsifier, and the concentrate is diluted with emulsifier-containing water to the desired concentration.
Discs of bean leaves (Phaseolus vulgaris) which are infested by all stages of the greenhouse red spider mite (Tetranychus urticae) are sprayed with an active compound preparation of the desired concentration.
After the desired period of time, the activity in % is determined 100% means that all spider mites have been killed; 0% means that none of the spider mites have been killed.

The subject of another assay is Spodoptera frugiperda. Description: Spodoptera frugiperda larvae test (sprayed cabbage leaves). It counts as in vivo, army worm (Spodoptera frugiperda) larvae. To be noted: for pest or weed control at 0.16 g/ha / pest or weed control at 0.8 g/ha / pest or weed control at 20 g/ha / pest or weed control at 100 g/ha / pest or weed control at 4 g/ha: Spodoptera frugiperda.
Description: as §2, §3, §1, §4, §5
Cabbage leaves (Brassica oleracea) are treated by spraying with the active compound preparation of the desired concentration and are populated with larvae of the army worm (Spodoptera frugiperda) while the leaves are still moist.
After the desired period of time, the kill in % is determined 100% means that all caterpillars have been killed; 0% means that none of the caterpillars have been killed. The kill rates determined are entered into Colby's formula.

The subject of the next assay is Myzus persicae. Description: Myzus persicae test (spray treatment of infested cabbage leaves). In kind it is in vivo, green peach aphid (Myzus persicae). To be noted: for pest or weed control at 0.16 g/ha / pest or weed control at 0.8 g/ha / pest or weed control at 0.032 g/ha / pest or weed control at 4 g/ha: Myzus persicae. How it is done: as §1, §4
After the desired period of time, the kill in % is determined 100% means that all aphids have been killed; 0% means that none of the aphids have been killed. The kill rates determined are entered into Colby's formula.

Where [1] appears, read: 144 h, single active compound, 100 g/ha, 6 d, read-out: Kill in % after 6 d.
The mark [2] stands for this setting: 48 h, read-out: Kill in % after 2 d.
The mark [3] stands for this setting: single active compound, 100 g/ha, 6 d.
Where [4] appears, read: single active compound, 4 g/ha, after 6 d.
The mark [5] stands for this setting: 144 h, single active compound, 0.16 g/ha, 6 d, read-out: Kill in % after 6 d.
[6] abbreviates: 144 h, single active compound, 0.8 g/ha, 6 d, read-out: Kill in % after 6 d.
Where [7] appears, read: 48 h, single active compound, 2 d, read-out: Kill in % after 2 d.
[8] abbreviates: 144 h, single active compound, 6 d, read-out: Kill in % after 6 d.
Setting [9] is: 48 h, single active compound, 4 g/ha, after 2 d, read-out: Kill in % after 2 d.
Setting [10] is: single active compound, 0.8 g/ha, 6 d.
The mark [11] stands for this setting: 144 h, read-out: Kill in % after 6 d.
Where [12] appears, read: 24 h, read-out: Kill in % after 1 d.

As to `Cc1nn(C)c(/C(OC(=O)C(C)(C)C)=C(\C#N)c2ccc(C(C)(C)C)cc2)c1C` [cyenopyrafen, (1E)-2-cyano-2-[4-(1,1-dimethylethyl)phenyl]-1-(1,3,4-trimethyl-1H-pyrazol-5-yl)ethenyl 2,2-dimethylpropanoate], the pest or weed control at 100 g/ha in the assay with Phaedon cochleariae (setting [1]) came out at 0%. Moreover, in the assay on Tetranychus urticae (setting [2]), the pest or weed control at 0.8 g/ha is 70%.

`CSC(=O)O/C(=C(/C#N)c1ccc(Cl)cc1)c1ccccc1C(F)(F)F` [IKA 2002]: the “Kill in % after 6 d” value in the assay with Phaedon cochleariae (setting [3]) turned out to be 0%; in the assay on Spodoptera frugiperda (setting [3]), 0%; in the assay on Tetranychus urticae (setting [4]) it was 70%.

As to `CC(c1ccc(Cl)nc1)S(C)(=O)=NC#N` (centres unmarked) [compound (I-5)], the pest or weed control at 0.16 g/ha in the assay with Myzus persicae (24 h, single active compound, 0.16 g/ha, 1 d, read-out: Kill in % after 1 d) turned out to be 0%; in the assay with Myzus persicae (setting [5]), 0%; in the assay with Spodoptera frugiperda (48 h, single active compound, 0.16 g/ha, 2 d, read-out: Kill in % after 2 d), 0%. Moreover, the pest or weed control at 0.8 g/ha in the assay on Myzus persicae (24 h, single active compound, 0.8 g/ha, 1 d, read-out: Kill in % after 1 d) was 0%; in the assay with Myzus persicae (setting [6]), 20%; in the assay with Phaedon cochleariae (setting [6]) it was 0%; in the assay on Spodoptera frugiperda (48 h, single active compound, 0.8 g/ha, 2 d, read-out: Kill in % after 2 d), 0%; in the assay with Spodoptera frugiperda (setting [6]), 0%; with Tetranychus urticae (48 h, single active compound, 0.8 g/ha, after 2 d, read-out: Kill in % after 2 d), 0%. Further, the pest or weed control at 4 g/ha in the assay on Phaedon cochleariae (setting [7]) amounted to 0%; in the assay with Phaedon cochleariae (setting [8]), 0%; in the assay on Spodoptera frugiperda (144 h, single active compound, 4 g/ha, 6 d, read-out: Kill in % after 6 d), 0%; with Tetranychus urticae (setting [9]), 0%; with Tetranychus urticae (144 h, single active compound, 4 g/ha, after 6 d, read-out: Kill in % after 6 d) it was 0%. In addition, the pest or weed control at 20 g/ha with Phaedon cochleariae (setting [7]) came to 0%; in the assay with Phaedon cochleariae (setting [8]), 0%; in the assay with Spodoptera frugiperda (setting [7]), 0%; in the assay with Spodoptera frugiperda (setting [8]), 0%; with Tetranychus urticae (144 h, single active compound, 20 g/ha, after 6 d, read-out: Kill in % after 6 d) it was 0%. Besides, the pest or weed control at 100 g/ha in the assay with Spodoptera frugiperda (48 h, single active compound, 100 g/ha, 2 d, read-out: Kill in % after 2 d) came out at 0%; in the assay with Spodoptera frugiperda (setting [1]), 0%; in the assay on Tetranychus urticae (144 h, single active compound, 100 g/ha, after 6 d, read-out: Kill in % after 6 d) it was 0%.

On to spinosad, for which the “Kill in % after 6 d” value in the assay on Spodoptera frugiperda (setting [10]) is listed as 50%; in the assay on Tetranychus urticae (setting [4]) it was 20%.

As for `Cc1cc(C)c([S+]([O-])CC(F)(F)F)cc1-n1cnc(C(F)(F)F)n1` (centres unmarked) [II-29-31, 1-{2,4-dimethyl-5-[(2,2,2-trifluoroethyl)sulphinyl]phenyl}-3-(trifluoromethyl)-1H-1,2,4-triazole], the pest or weed control at 0.8 g/ha in the assay with Tetranychus urticae (144 h, single active compound, 0.8 g/ha, after 6 d, read-out: Kill in % after 6 d) was found to be 60%.

On to `COCCOC(=O)C(C#N)(C(=O)c1ccccc1C(F)(F)F)c1ccc(C(C)(C)C)cc1` (stereo not drawn) [cyflumetofen, 2-methoxyethyl alpha-cyano-alpha-[4-(1,1-dimethylethyl)phenyl]-beta-oxo-2-(trifluoromethyl)benzenepropanoate], for which the pest or weed control at 100 g/ha with Phaedon cochleariae (setting [1]) stood at 0%. Further, in the assay with Tetranychus urticae (setting [2]), the pest or weed control at 0.8 g/ha was 50%.

In the case of `CC1=NNC(=O)N(/N=C/c2cccnc2)C1` [pymetrozine], in the assay with Myzus persicae (setting [11]), the pest or weed control at 0.16 g/ha came to 0% and the pest or weed control at 0.8 g/ha turned out to be 60%. Besides, the pest or weed control at 100 g/ha with Tetranychus urticae (setting [11]) was determined as 0%.

Take emamectin benzoate: the “Kill in % after 6 d” value is given as 0% in the assay on Myzus persicae (single active compound, 0.0064 g/ha, 6 d) and 0% in the assay on Tetranychus urticae (single active compound, 0.032 g/ha, after 6 d). Besides, in the assay with Spodoptera frugiperda (single active compound, 0.8 g/ha, 2 d), the “Kill in % after 2 d” value was 83%.

Regarding `CCOCn1c(-c2ccc(Cl)cc2)c(C#N)c(Br)c1C(F)(F)F` [chlorfenapyr], the pest or weed control at 0.8 g/ha with Phaedon cochleariae (setting [6]) stood at 0%. For the same compound, the results for the pest or weed control at 4 g/ha in the assay with Phaedon cochleariae (setting [8]), with Spodoptera frugiperda (setting [2]) and in the assay with Tetranychus urticae (setting [2]) were 83%, 67% and 50%, respectively.

On to abamectin, for which the “Kill in % after 6 d” value in the assay with Myzus persicae (single active compound, 0.032 g/ha, 6 d) is on record as 0%; in the assay on Phaedon cochleariae (single active compound, 0.16 g/ha, 6 d), 0%. In addition, the “Kill in % after 2 d” value in the assay on Tetranychus urticae (single active compound, 0.032 g/ha, after 2 d) is listed as 0%.

Consider `CC(C)c1cc(Oc2ccccc2)cc(C(C)C)c1NC(=S)NC(C)(C)C` [diafenthiuron], for which the pest or weed control at 20 g/ha in the assay with Phaedon cochleariae (setting [8]) came to 0%. For the same compound, the pest or weed control at 4 g/ha in the assay on Tetranychus urticae (setting [9]) amounted to 0%.

Consider spinetoram, for which the entries for the “Kill in % after 6 d” value in the assay with Myzus persicae (setting [10]) and in the assay with Phaedon cochleariae (setting [10]) were 0% and 50%, respectively. Moreover, the “Kill in % after 2 d” value with Spodoptera frugiperda (single active compound, 0.16 g/ha, 2 d) is 50%; with Tetranychus urticae (single active compound, 4 g/ha, after 2 d) it was 20%.

Turning to `CN/C(=N\[N+](=O)[O-])NCC1CCOC1` (centres unmarked) [dinotefuran], the pest or weed control at 0.8 g/ha in the assay on Myzus persicae (setting [12]) and in the assay on Phaedon cochleariae (setting [11]) was 0% in each case. In addition, the pest or weed control at 20 g/ha in the assay with Tetranychus urticae (setting [2]) amounted to 0%.

Take `CCc1nn(C)c(C(=O)NCc2ccc(C(C)(C)C)cc2)c1Cl` [tebufenpyrad]: in the assay with Myzus persicae (setting [11]), the pest or weed control at 0.16 g/ha amounted to 0% and the pest or weed control at 0.8 g/ha worked out at 0%. Further, the pest or weed control at 20 g/ha in the assay with Phaedon cochleariae (setting [8]) was 0%. In the assay with Tetranychus urticae (setting [11]), the pest or weed control at 4 g/ha came to 40%.

As for `Cc1c(COC(=O)C2C(/C=C(\Cl)C(F)(F)F)C2(C)C)cccc1-c1ccccc1` (centres unmarked) [bifenthrin], in the assay on Myzus persicae (setting [11]), the pest or weed control at 0.032 g/ha was found to be 0%. Moreover, the pest or weed control at 0.8 g/ha with Phaedon cochleariae (setting [6]) is 50%; in the assay with Spodoptera frugiperda (setting [11]) it was 0%. The pest or weed control at 4 g/ha in the assay on Tetranychus urticae (setting [11]) was 40%.

For `Cc1cc(C(F)(C(F)(F)F)C(F)(F)F)ccc1NC(=O)c1cccc(Cl)c1C(=O)N[C@@H](C)CS(C)(=O)=O` [compound II-28-2], in the assay on Myzus persicae (144 h, single active compound, 0.032 g/ha, 6 d, read-out: Kill in % after 6 d), the pest or weed control at 0.032 g/ha amounted to 0%. For the same compound, in the assay on Phaedon cochleariae (setting [6]), the pest or weed control at 0.8 g/ha came out at 0%. Moreover, in the assay with Spodoptera frugiperda (setting [5]), the pest or weed control at 0.16 g/ha is 50%.

Regarding `O=C(NC(=O)c1c(F)cccc1F)Nc1ccc(OC(F)(F)C(F)OC(F)(F)F)c(Cl)c1` (centres unmarked) [novaluron], in the assay with Myzus persicae (setting [11]), the pest or weed control at 4 g/ha was 0%. The pest or weed control at 0.8 g/ha in the assay on Spodoptera frugiperda (setting [2]) came to 33%. Also, the pest or weed control at 20 g/ha with Tetranychus urticae (setting [2]) amounted to 0%.

For `Cc1ccc(/N=C/N(C)/C=N/c2ccc(C)cc2C)c(C)c1` [amitraz], the pest or weed control at 0.8 g/ha in the assay with Myzus persicae (setting [12]) was found to be 0%. Further, the pest or weed control at 4 g/ha with Myzus persicae (setting [11]) came out at 0%. For the same compound, in the assay on Tetranychus urticae (setting [11]), the pest or weed control at 20 g/ha came to 80%.
